Measurements published in patent EP1611892A2, “Pharmaceutical compositions comprising drospirenone” (Schering Aktiengesellschaft, priority 2000, dated 2001).

Columns and labels:
Type in all cases: physicochemical
[1] = Solubility in water and aqueous buffers; settings: in water and aqueous buffers at various pH values
[2] = In vitro dissolution from a tablet preparation (USP XXIII Paddle Method); settings: drospirenone in micronized form; rapid dissolution defined as at least 70% over about 30 minutes from a 3 mg tablet in 900 ml of water at 37°C, 50 rpm
[3] = Chemical stability under acid and alkaline conditions

C[C@]12CCC(=O)C=C1[C@@H]1C[C@@H]1[C@H]1[C@@H]3[C@@H]4C[C@@H]4[C@@]4(CCC(=O)O4)[C@@]3(C)CC[C@@H]12 [drospirenone, 6β,7β;15β;16β-dimethylene-3-oxo-17α-preg-4-ene-21,17-carbolactone]
solubility [1]: sparingly soluble
dissolution of the active compound from the composition in vitro [2]: rapid dissolution
stability under acid conditions ([3]; acid conditions): rearranged to an inactive isomer
stability under alkaline conditions ([3]; alkaline conditions): hydrolysed
